Data on 31 compounds can be found in US20130303509A1, “NAMPT INHIBITORS” (AbbVie Inc., priority 2012, published 2013).

pIC50: −log10 of the molar value.

The assay concerns PC3 cells. As to the kind of experiment: NAMPT Cell Proliferation Assay. The conditions noted are these: Homo sapiens, PC-3, 120 h, 5 days incubation, cell viability by Cell Titer Glo. The assay is classed as cell-based. Put shortly: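 Seeded at 500 cells/well in RPMI with 10% heat-inactivated FBS and left to attach overnight at 37° C, 5% CO2. Compounds were added as 10-fold dilutions […] for 5 days, then viability was read by CellTiter-Glo. IC50s came from sigmoidal fits of percent inhibition.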
Background: ATP-based viability assays read luminescence as a measure of living cells.
As usually defined, the pIC50 is −log10 of the IC50, conventionally taken in molar units. `O=C(Nc1ccc(O[C@@H]2CCN(C(=O)C3CCC(F)(F)CC3)C2)cc1)C1CN(c2ccnnc2)C1` [Example 482, N-[4-({(3R)-1-[(4,4-difluorocyclohexyl)carbonyl]pyrrolidin-3-yl}oxy)phenyl]-1-(pyridazin-4-yl)azetidine-3-carboxamide]: the negative-log IC50 (pIC50) is 7.49.
Turning to `O=C(Nc1ccc(O[C@@H]2CCN(C(=O)c3ccccc3Cl)C2)cc1)C1CN(c2cccnn2)C1` [Example 483, N-(4-{[(3R)-1-(2-chlorobenzoyl)pyrrolidin-3-yl]oxy}phenyl)-1-(pyridazin-3-yl)azetidine-3-carboxamide], the pIC50 is 8.67.
Turning to `O=C(Nc1ccc(O[C@@H]2CCN(C(=O)c3nccs3)C2)cc1)C1CN(c2cccnn2)C1` [Example 484, 1-(pyridazin-3-yl)-N-(4-{[(3R)-1-(1,3-thiazol-2-ylcarbonyl)pyrrolidin-3-yl]oxy}phenyl)azetidine-3-carboxamide], the pIC50 was 9.25.
`O=C(Nc1ccc(O[C@@H]2CCN(C(=O)CC3CC3)C2)cc1)C1CN(c2cccnn2)C1` [Example 485, N-(4-{[(3R)-1-(cyclopropylacetyl)pyrrolidin-3-yl]oxy}phenyl)-1-(pyridazin-3-yl)azetidine-3-carboxamide]: the pIC50 is 8.20.
`CC[C@H](C)C(=O)N1CC[C@@H](Oc2ccc(NC(=O)C3CN(c4cccnn4)C3)cc2)C1` [Example 486, N-[4-({(3R)-1-[(2S)-2-methylbutanoyl]pyrrolidin-3-yl}oxy)phenyl]-1-(pyridazin-3-yl)azetidine-3-carboxamide] gave a pIC50 of 8.20.
The compound `O=C(Nc1ccc(O[C@@H]2CCN(C(=O)C3CCOCC3)C2)cc1)C1CN(c2cccnn2)C1` [Example 487, 1-(pyridazin-3-yl)-N-(4-{[(3R)-1-(tetrahydro-2H-pyran-4-ylcarbonyl)pyrrolidin-3-yl]oxy}phenyl)azetidine-3-carboxamide] showed a pIC50 of 7.14.
`O=C(Nc1ccc(O[C@@H]2CCN(C(=O)Cc3ccc(OC(F)(F)F)cc3)C2)cc1)C1CN(c2cccnn2)C1` [Example 488, 1-(pyridazin-3-yl)-N-(4-{[(3R)-1-{[4-(trifluoromethoxy)phenyl]acetyl}pyrrolidin-3-yl]oxy}phenyl)azetidine-3-carboxamide]: the pIC50 is 7.19.
For `O=C(Nc1ccc(O[C@@H]2CCN(C(=O)c3ccc(F)cc3)C2)cc1)C1CN(c2cccnn2)C1` [Example 489, N-(4-{[(3R)-1-(4-fluorobenzoyl)pyrrolidin-3-yl]oxy}phenyl)-1-(pyridazin-3-yl)azetidine-3-carboxamide], the pIC50 was 8.68.
Compound `O=C(Nc1ccc(O[C@@H]2CCN(C(=O)c3ccsc3)C2)cc1)C1CN(c2cccnn2)C1` [Example 490, 1-(pyridazin-3-yl)-N-(4-{[(3R)-1-(thiophen-3-ylcarbonyl)pyrrolidin-3-yl]oxy}phenyl)azetidine-3-carboxamide] showed a pIC50 of 9.17.
For `O=C(Nc1ccc(O[C@@H]2CCN(C(=O)Cc3ccc(F)cc3)C2)cc1)C1CN(c2cccnn2)C1` [Example 491, N-[4-({(3R)-1-[(4-fluorophenyl)acetyl]pyrrolidin-3-yl}oxy)phenyl]-1-(pyridazin-3-yl)azetidine-3-carboxamide] the value was 8.07; for `O=C(Nc1ccc(O[C@@H]2CCN(C(=O)Cc3cc(F)cc(F)c3)C2)cc1)C1CN(c2cccnn2)C1` [Example 492, N-[4-({(3R)-1-[(3,5-difluorophenyl)acetyl]pyrrolidin-3-yl}oxy)phenyl]-1-(pyridazin-3-yl)azetidine-3-carboxamide], 8.43; for `O=C(Nc1ccc(O[C@@H]2CCN(C(=O)c3ccc(F)c(F)c3)C2)cc1)C1CN(c2cccnn2)C1` [Example 493, N-(4-{[(3R)-1-(3,4-difluorobenzoyl)pyrrolidin-3-yl]oxy}phenyl)-1-(pyridazin-3-yl)azetidine-3-carboxamide], 8.17.
For `O=C(Nc1ccc(O[C@@H]2CCN(C(=O)Cc3cccc(F)c3)C2)cc1)C1CN(c2cccnn2)C1` [Example 494, N-[4-({(3R)-1-[(3-fluorophenyl)acetyl]pyrrolidin-3-yl}oxy)phenyl]-1-(pyridazin-3-yl)azetidine-3-carboxamide] the value was 8.98; for `O=C(Nc1ccc(O[C@@H]2CCN(C(=O)c3cccc(C(F)(F)F)c3)C2)cc1)C1CN(c2cccnn2)C1` [Example 495, 1-(pyridazin-3-yl)-N-[4-({(3R)-1-[3-(trifluoromethyl)benzoyl]pyrrolidin-3-yl}oxy)phenyl]azetidine-3-carboxamide], 8.15; for `O=C(Nc1ccc(O[C@@H]2CCN(C(=O)Cc3ccc(F)cc3F)C2)cc1)C1CN(c2cccnn2)C1` [Example 496, N-[4-({(3R)-1-[(2,4-difluorophenyl)acetyl]pyrrolidin-3-yl}oxy)phenyl]-1-(pyridazin-3-yl)azetidine-3-carboxamide], 8.20.
`O=C(Nc1ccc(O[C@@H]2CCN(C(=O)Cc3ccc(C(F)(F)F)cc3)C2)cc1)C1CN(c2cccnn2)C1` [Example 497, 1-(pyridazin-3-yl)-N-(4-{[(3R)-1-{[4-(trifluoromethyl)phenyl]acetyl}pyrrolidin-3-yl]oxy}phenyl)azetidine-3-carboxamide]: the pIC50 was 7.63.
Consider `O=C(Nc1ccc(O[C@@H]2CCN(C(=O)c3cscn3)C2)cc1)C1CN(c2cccnn2)C1` [Example 498, 1-(pyridazin-3-yl)-N-(4-{[(3R)-1-(1,3-thiazol-4-ylcarbonyl)pyrrolidin-3-yl]oxy}phenyl)azetidine-3-carboxamide], for which the pIC50 is 8.18.
`O=C(Nc1ccc(O[C@@H]2CCN(C(=O)C3CCCO3)C2)cc1)C1CN(c2cccnn2)C1` (stereo partly drawn) [Example 499, 1-(pyridazin-3-yl)-N-(4-{[(3R)-1-(tetrahydrofuran-2-ylcarbonyl)pyrrolidin-3-yl]oxy}phenyl)azetidine-3-carboxamide] showed a pIC50 of 7.92.
Compound `Cc1ccc(C(=O)N2CC[C@@H](Oc3ccc(NC(=O)C4CN(c5cccnn5)C4)cc3)C2)s1` [Example 500, N-[4-({(3R)-1-[(5-methylthiophen-2-yl)carbonyl]pyrrolidin-3-yl}oxy)phenyl]-1-(pyridazin-3-yl)azetidine-3-carboxamide] had a pIC50 of 8.99.
Compound `O=C(Nc1ccc(O[C@@H]2CCN(C(=O)Cc3ccccc3F)C2)cc1)C1CN(c2cccnn2)C1` [Example 501, N-[4-({(3R)-1-[(2-fluorophenyl)acetyl]pyrrolidin-3-yl}oxy)phenyl]-1-(pyridazin-3-yl)azetidine-3-carboxamide] had a pIC50 of 8.22.
`O=C(Nc1ccc(O[C@@H]2CCN(C(=O)C3CC3)C2)cc1)C1CN(c2cccnn2)C1` [Example 502, N-(4-{[(3R)-1-(cyclopropylcarbonyl)pyrrolidin-3-yl]oxy}phenyl)-1-(pyridazin-3-yl)azetidine-3-carboxamide] showed a pIC50 of 8.32.
Regarding `O=C(Nc1ccc(O[C@@H]2CCN(C(=O)C3CCOC3)C2)cc1)C1CN(c2cccnn2)C1` (stereo partly drawn) [Example 503, 1-(pyridazin-3-yl)-N-(4-{[(3R)-1-(tetrahydrofuran-3-ylcarbonyl)pyrrolidin-3-yl]oxy}phenyl)azetidine-3-carboxamide], the pIC50 was 7.24.
`O=C(Nc1ccc(O[C@@H]2CCN(C(=O)c3cccc(OC(F)(F)F)c3)C2)cc1)C1CN(c2cccnn2)C1` [Example 504, 1-(pyridazin-3-yl)-N-[4-({(3R)-1-[3-(trifluoromethoxy)benzoyl]pyrrolidin-3-yl}oxy)phenyl]azetidine-3-carboxamide] gave a pIC50 of 8.11.
`O=C(Nc1ccc(O[C@@H]2CCN(C(=O)c3ccccn3)C2)cc1)C1CN(c2cccnn2)C1` [Example 505, 1-(pyridazin-3-yl)-N-(4-{[(3R)-1-(pyridin-2-ylcarbonyl)pyrrolidin-3-yl]oxy}phenyl)azetidine-3-carboxamide] gave a pIC50 of 8.16.
Compound `O=C(Nc1ccc(O[C@@H]2CCN(C(=O)c3cccc(Cl)c3)C2)cc1)C1CN(c2cccnn2)C1` [Example 506, N-(4-{[(3R)-1-(3-chlorobenzoyl)pyrrolidin-3-yl]oxy}phenyl)-1-(pyridazin-3-yl)azetidine-3-carboxamide] showed a pIC50 of 8.89.
Regarding `O=C(Nc1ccc(O[C@@H]2CCN(C(=O)c3ccc(Cl)cc3)C2)cc1)C1CN(c2cccnn2)C1` [Example 507, N-(4-{[(3R)-1-(4-chlorobenzoyl)pyrrolidin-3-yl]oxy}phenyl)-1-(pyridazin-3-yl)azetidine-3-carboxamide], the negative-log IC50 (pIC50) is 8.08.
For `CC(C)(C(=O)N1CC[C@@H](Oc2ccc(NC(=O)C3CN(c4cccnn4)C3)cc2)C1)c1ccccc1` [Example 508, N-(4-{[(3R)-1-(2-methyl-2-phenylpropanoyl)pyrrolidin-3-yl]oxy}phenyl)-1-(pyridazin-3-yl)azetidine-3-carboxamide] the value was 9.10; for `O=C(Nc1ccc(O[C@@H]2CCN(C(=O)c3ccc(F)cc3F)C2)cc1)C1CN(c2cccnn2)C1` [Example 509, N-(4-{[(3R)-1-(2,4-difluorobenzoyl)pyrrolidin-3-yl]oxy}phenyl)-1-(pyridazin-3-yl)azetidine-3-carboxamide], 8.92.
The compound `COCC(=O)N1CC[C@@H](Oc2ccc(NC(=O)C3CN(c4cccnn4)C3)cc2)C1` [Example 510, N-(4-{[(3R)-1-(methoxyacetyl)pyrrolidin-3-yl]oxy}phenyl)-1-(pyridazin-3-yl)azetidine-3-carboxamide] gave a pIC50 of 7.18.
As to `O=C(Nc1ccc(O[C@@H]2CCN(C(=O)c3cccs3)C2)cc1)C1CN(c2cccnn2)C1` [Example 511, 1-(pyridazin-3-yl)-N-(4-{[(3R)-1-(thiophen-2-ylcarbonyl)pyrrolidin-3-yl]oxy}phenyl)azetidine-3-carboxamide], the pIC50 was 9.09.
On to `O=C(Nc1ccc(O[C@@H]2CCN(C(=O)Cc3cccc(C(F)(F)F)c3)C2)cc1)C1CN(c2cccnn2)C1` [Example 512, 1-(pyridazin-3-yl)-N-(4-{[(3R)-1-{[3-(trifluoromethyl)phenyl]acetyl}pyrrolidin-3-yl]oxy}phenyl)azetidine-3-carboxamide], for which the pIC50 was 7.81.
